From article PMC3269340, “Pharmacokinetics of memantine in rats and mice” (PLoS Currents, 2012)

Experiment: in vivo
Conditions: male, C57Bl/6, mouse
Description: The goals of these studies were to evaluate the PK of memantine (hydrochloride salt) in Sprague-Dawley rats and C57Bl/6 mice following a single intravenous bolus (iv; 1 mg eq./kg), oral gavage (po; 1 and 10 mg eq./kg), or subcutaneous (sc; 1 and 10 mg eq./kg) administration.
Sprague Dawley (SD) rats (138 adult males), and C57Bl/6 mice (140 adult males), were obtained (Hilltop Laboratories, Scottsdale, PA); 123 per species were used in the study and the remainder provided blank matrix. Animals were individually identified by tail markings and were acclimated to the study environment for 16-21 days prior to dose administration. Animals were individually housed in suspended wire caging, and were kept on a 12h/12h light/dark cycle except when interrupted for study procedures. Average room temperature was regulated in the range 18 to 29°C, average relative humidity of 30-70%, and an average daily airflow >10 fresh air changes/h. Animals were fed LabDiet^Ò Certified Rodent Diet 5002 Meal food ad libitum, except during fasting prior to dose administration, and had access to water ad libitum.
Memantine was dosed as a solution in physiological saline as a single dose via intravenous bolus (1 mg eq./kg), oral gavage (po; 1 and 10 mg eq./kg), or subcutaneous (sc; 1 and 10 mg eq./kg) administration. The concentration of memantine in the 1 mg eq./kg iv, po, and sc solutions dosed to rats was 1 mg eq./mL, and the dose volume was 1 mL/kg. The concentration of memantine for the same dose level administered to mice was 0.2 mg eq./mL, and the dose volume was 5 mL/kg. The concentration of memantine in the 10mg eq./kg po and sc solutions was 5 mg eq./mL and the dose volume was 2 mL/kg for both rats and mice.
Details of the dose administration, body weights, clinical observations, plasma and brain sample collection and preparation are not shown in this report but are available upon request. Blood (for preparation of plasma) and brain samples were collected at 0.08, 0.25, 0.5, 1, 2, 4, 8, and 24h post-dose.
Since all time points were terminal, mean memantine concentrations per time point were used to calculate the composite PK parameters by non-compartmental analysis using WinNonlin program, version 5.2 (Pharsight Corp., Mountain View, California). A model was selected based on the vascular (iv bolus) or extravascular (po or sc) routes of administration. For the iv route, plasma concentration at time zero was back extrapolated from the first two observed post dose plasma concentrations. For the po and sc routes, concentration at time zero was assumed to be zero. Plasma and tissue concentrations below the limit of quantitation were treated as absent samples for the purpose of calculating the mean plasma concentration values or for calculating PK parameters.
The area under the plasma concentration versus time curve (AUC) was calculated using the linear trapezoidal method (linear interpolation). When appropriate, the terminal elimination phase of the PK profile was estimated based on the best fit (r^2) using at least the last three observed concentrations. PK parameters describing the systemic exposure of memantine in plasma and brain were estimated from observed (rather than predicted) plasma/brain concentrations, the dosing regimen, the AUC, and the terminal elimination phase rate constant (kel) for each group. The portion of the AUC from the last measurable concentration to infinity was estimated from the equation Ct/kel, where Ct represents the last measurable concentration. The extrapolated portion of the AUC was used for the determination of AUC0-∞. The percent bioavailability (%F) was calculated by dividing the dose normalized extravascular plasma AUC0-∞ by the dose normalized iv plasma AUC0-∞ times 100. The bioavailability calculations assumed concentrations were in the linear range.
Concentrations of memantine in rat and mouse plasma and brain were determined using an LC-MS/MS assay developed at ABC Laboratories.

In the case of `CC12CC3CC(C)(C1)CC(N)(C3)C2` [memantine], the “Cmax and exposures increase, fold more than dose-proportional” value is reported as ~ 1.5 fold, the Cmax/Cmin ratios is reported as > 100 and the “Contribution of active transport to clearance” value is reported as > 100%. For the same molecule, the “delay in Tmax for brain compared to plasma” value was 0.25 to 1.5 h, the elimination half-life was < 4 h and the “total systemic clearance, times higher than GFR” value was ~4.5 fold. The “C max/ C min ratio” value (10 mg/kg) was 760, the concentration at 24 h (10 mg/kg) was 10 nM and the Tmax (10 mg/kg, T max) was 0.5 to 1 h. The Tmax (Tmax after extravascular administration) was 0.25 to 0.5 h, the half-life (brain elimination half-lives after extravascular administrations) was 2.16 to 3.05 h and the half-life (elimination half-life) was 3 to 4 h. For the same molecule, the Cmax (in vivo, iv, 1 mg/kg) was 7700 nM, the Cmax (in vivo, sc, 1 mg/kg) was 527 nM and the “Half-life (t½)” value (iv, 1 mg/kg) was 2.98 h. It also gave an MRT inf (iv, 1 mg/kg) of 2.35 h, a clearance (iv, 1 mg/kg) of 63.5 mL/min/kg and a half-life (iv, 1 mg/kg, Half-life (t½)) of 1.97 h. It also gave a Tmax (iv, 1 mg/kg, Observed Tmax) of 1 h, a half-life (iv, t 1/2) of 3 h and a bioavailability (po) of 85%. The “Half-life (t½)” value (po, 1 mg/kg) was 3.02 h, the bioavailability (po, 1 mg/kg) was 84.6% and the AUC(0-inf) (po, 1 mg/kg) was 1.2 µM·h. It also gave a Cmax (po, 1 mg/kg, C max) of 500 nM, a half-life (po, 1 mg/kg, Half-life (t½)) of 1.86 h and a Tmax (po, 1 mg/kg, Observed Tmax) of 0.5 h. For the same molecule, the Tmax (po, 1 mg/kg, T max) was 0.5 h, the “Half-life (t½)” value (po, 10 mg/kg) was 3.05 h and the bioavailability (po, 10 mg/kg) was 125%. The AUC(0-inf) (po, 10 mg/kg) was 18.2 µM·h, the Cmax (po, 10 mg/kg, C max) was 7600 nM and the half-life (po, 10 mg/kg, Half-life (t½)) was 2.92 h. The “Half-life (t½)” value (sc, 1 mg/kg) was 2.16 h, the bioavailability (sc, 1 mg/kg) was 97.8% and the half-life (sc, 1 mg/kg, Half-life (t½)) was 1.64 h. For the same molecule, the Cmax (sc, 1 mg/kg, Observed Cmax) was 5360 nM, the “Half-life (t½)” value (sc, 10 mg/kg) was 3.00 h and the bioavailability (sc, 10 mg/kg) was 150%. For the same molecule, the half-life (sc, 10 mg/kg, Half-life (t½)) was 3.07 h.
